Test results reported in PubChem BioAssay AID248 (DTP/NCI, 2004).
Several values for one entry are separate records, joined by “and”; a condition that tells them apart may be missing. Identical values can stand only once. Inconclusive results and toxic doses are left out. Rule as the data show it: active = T/C of 150% or more; inactive = T/C below 125%.

Test system: L1210 leukemia ip in BDF1 mice, survival T/C
Test: NCI In Vivo Anticancer Drug Screen. Data for tumor model L1210 Leukemia (intraperitoneal) in B6D2F1 (BDF1) mice
Conditions: endpoint: mean survival time, higher = longer survival
How it was run: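 Value reflects the ratio of survival in compound-treated mice to survival in vehicle-treated controls, with both groups carrying the same transplanted tumor.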

[1] = dose: 6.25 mg/kg/injection, schedule: Q01DX009 (ip), vehicle: saline
[2] = dose: 25.0 mg/kg/injection, schedule: Q04DX003 (ip), vehicle: saline with Tween-80
[3] = dose: 50.0 mg/kg/injection, schedule: Q04DX003 (ip), vehicle: saline with Tween-80
[4] = dose: 100.0 mg/kg/injection, schedule: Q04DX003 (ip), vehicle: saline with Tween-80
[5] = dose: 50.0 mg/kg/injection, schedule: Q01DX009 (ip), vehicle: saline with Tween-80
[6] = dose: 100.0 mg/kg/injection, schedule: Q01DX009 (ip), vehicle: saline with Tween-80
[7] = dose: 200.0 mg/kg/injection, schedule: Q01DX009 (ip), vehicle: saline with Tween-80
[8] = dose: 100.0 mg/kg/injection, schedule: Q04DX003 (ip), vehicle: saline
[9] = dose: 200.0 mg/kg/injection, schedule: Q04DX003 (ip), vehicle: saline
[10] = dose: 400.0 mg/kg/injection, schedule: Q04DX003 (ip), vehicle: saline
[11] = dose: 25.0 mg/kg/injection, schedule: Q01DX009 (ip), vehicle: saline with Tween-80
[12] = dose: 100.0 mg/kg/injection, schedule: Q01DX009 (ip), vehicle: saline
[13] = dose: 200.0 mg/kg/injection, schedule: Q01DX009 (ip), vehicle: saline
[14] = dose: 400.0 mg/kg/injection, schedule: Q01DX009 (ip), vehicle: saline

Measured: T/C

CCCCNC(C)(C)CS
inactive: [1] 105 % of control | dose: 12.5 mg/kg/injection, schedule: Q01DX009 (ip), vehicle: saline 94 % of control | dose: 12.5 mg/kg/injection, schedule: Q04DX003 (ip), vehicle: saline 100 % of control | dose: 25.0 mg/kg/injection, schedule: Q01DX009 (ip), vehicle: saline 96 % of control | dose: 25.0 mg/kg/injection, schedule: Q04DX003 (ip), vehicle: saline 94 % of control | dose: 50.0 mg/kg/injection, schedule: Q01DX009 (ip), vehicle: saline 102 % of control | dose: 50.0 mg/kg/injection, schedule: Q04DX003 (ip), vehicle: saline 102 % of control | dose: 75.0 mg/kg/injection, schedule: Q01DX009 (ip), vehicle: saline 105 % of control

CCOC(=O)CNC(=O)C=[N+]=[N-]
inactive: dose: 350.0 mg/kg/injection, schedule: Q01DX Z (ip), vehicle: water 116 % of control | dose: 500.0 mg/kg/injection, schedule: Q01DX Z (ip), vehicle: water 91 % of control

CCOC(=O)C(C(=N)C#N)C(C)=O (stereo not drawn)
inactive: dose: 6.25 mg/kg/injection, schedule: Q04DX003 (ip), vehicle: saline with Tween-80 98 % of control | dose: 12.5 mg/kg/injection, schedule: Q04DX003 (ip), vehicle: saline with Tween-80 98 % of control | [2] 97 % of control | [3] 88 % of control | [4] 103 % of control

O=C(O)Cc1ccc2c3c(ccc([N+](=O)[O-])c13)CC2
inactive: [5] 95 % of control | [6] 93 % of control | [4] 96 % of control | [7] 90 % of control | dose: 200.0 mg/kg/injection, schedule: Q04DX003 (ip), vehicle: saline with Tween-80 96 % of control

COCC(=N)C(C#N)(OC)C(=O)c1ccccc1 (stereo not drawn)
inactive: dose: 75.0 mg/kg/injection, schedule: Q01DX001 (ip), vehicle: other 101 % of control | dose: 150.0 mg/kg/injection, schedule: Q01DX001 (ip), vehicle: other 90 % of control

C=C(C)C(=O)[O][Sn]([CH2]CCC)([CH2]CCC)[CH2]CCC
inactive: dose: 0.39 mg/kg/injection, schedule: Q01DX009 (ip), vehicle: saline 98 % of control | dose: 0.78 mg/kg/injection, schedule: Q01DX009 (ip), vehicle: saline 105 % of control | dose: 1.56 mg/kg/injection, schedule: Q01DX009 (ip), vehicle: saline 94 % of control | [1] 92 % of control

O=C1CCC2(C/C1=N\Nc1ccccc1)OCCO2
inactive: [8] 100 % of control | [9] 96 % of control | [10] 100 % of control

O=C(/C=C/c1ccccc1)NC(=S)NC1CCCCC1
inactive: dose: 50.0 mg/kg/injection, schedule: Q01DX009 (ip), vehicle: carboxymethylcellulose (CMC) 101 % of control and 102 % of control | dose: 50.0 mg/kg/injection, schedule: Q04DX003 (ip), vehicle: carboxymethylcellulose (CMC) 103 % of control | dose: 100.0 mg/kg/injection, schedule: Q01DX009 (ip), vehicle: carboxymethylcellulose (CMC) 97 % of control and 90 % of control | dose: 100.0 mg/kg/injection, schedule: Q04DX002 (ip), vehicle: carboxymethylcellulose (CMC) 100 % of control and 106 % of control | dose: 100.0 mg/kg/injection, schedule: Q04DX003 (ip), vehicle: carboxymethylcellulose (CMC) 96 % of control | dose: 200.0 mg/kg/injection, schedule: Q01DX009 (ip), vehicle: carboxymethylcellulose (CMC) 93 % of control and 91 % of control | dose: 200.0 mg/kg/injection, schedule: Q04DX002 (ip), vehicle: carboxymethylcellulose (CMC) 103 % of control and 91 % of control | dose: 200.0 mg/kg/injection, schedule: Q04DX003 (ip), vehicle: carboxymethylcellulose (CMC) 96 % of control | dose: 400.0 mg/kg/injection, schedule: Q04DX002 (ip), vehicle: carboxymethylcellulose (CMC) 87 % of control

OC(OC/C(I)=C(/I)COC(O)C(Cl)(Cl)Cl)C(Cl)(Cl)Cl (stereo not drawn)
inactive: dose: 100.0 mg/kg/injection, schedule: Q01DX009 (ip), vehicle: other 103 % of control | dose: 100.0 mg/kg/injection, schedule: Q04DX003 (ip), vehicle: other 103 % of control | dose: 200.0 mg/kg/injection, schedule: Q01DX009 (ip), vehicle: other 92 % of control | dose: 200.0 mg/kg/injection, schedule: Q04DX003 (ip), vehicle: other 100 % of control | dose: 400.0 mg/kg/injection, schedule: Q04DX003 (ip), vehicle: other 97 % of control

CCN(CC)Cc1ccc(C2=NCCO2)cc1
inactive: dose: 50.0 mg/kg/injection, schedule: Q01DX001 (ip), vehicle: saline 91 % of control | dose: 100.0 mg/kg/injection, schedule: Q01DX001 (ip), vehicle: saline 94 % of control | dose: 200.0 mg/kg/injection, schedule: Q01DX001 (ip), vehicle: saline 98 % of control

CC(O)CN1CCCCCC1 (stereo not drawn)
inactive: dose: 12.5 mg/kg/injection, schedule: Q01DX009 (ip), vehicle: saline with Tween-80 103 % of control | [11] 94 % of control | [2] 107 % of control | [5] 93 % of control | [3] 107 % of control | [4] 95 % of control

O=S(=O)(NC1CCc2ccccc21)c1ccccc1 (stereo not drawn)
inactive: [6] 95 % of control | [7] 90 % of control

N#CCCNCCC#N
inactive: [12] 103 % of control | [8] 102 % of control | [13] 97 % of control | [9] 100 % of control | [14] 104 % of control | [10] 96 % of control

CCOC(=O)C(Cc1c[nH]c2ccccc12)(NC=O)C(=O)OCC
inactive: dose: 100.0 mg/kg/injection, schedule: Q01DX009 (ip), vehicle: Klucel (hydroxypropylcellulose) (HPC) 91 % of control | dose: 200.0 mg/kg/injection, schedule: Q01DX009 (ip), vehicle: Klucel (hydroxypropylcellulose) (HPC) 100 % of control | dose: 400.0 mg/kg/injection, schedule: Q01DX009 (ip), vehicle: Klucel (hydroxypropylcellulose) (HPC) 91 % of control

COC(=O)C1=COC(C)C2CN3CCc4c([nH]c5cc(OC)c(OC)cc45)C3CC12 (stereo not drawn)
inactive: dose: 50.0 mg/kg/injection, schedule: Q01DX Z (ip), vehicle: carboxymethylcellulose (CMC) 103 % of control | dose: 100.0 mg/kg/injection, schedule: Q01DX Z (ip), vehicle: carboxymethylcellulose (CMC) 105 % of control | dose: 200.0 mg/kg/injection, schedule: Q01DX Z (ip), vehicle: carboxymethylcellulose (CMC) 100 % of control | dose: 300.0 mg/kg/injection, schedule: Q01DX Z (ip), vehicle: carboxymethylcellulose (CMC) 105 % of control

CCCCCCc1nc2nc(Cl)c(Cl)nc2[nH]1
inactive: [11] 93 % of control | [2] 105 % of control | [5] 96 % of control | [3] 98 % of control | [6] 106 % of control | [4] 95 % of control and 103 % of control | dose: 150.0 mg/kg/injection, schedule: Q01DX009 (ip), vehicle: saline with Tween-80 98 % of control

O=[N+]([O-])c1ccc(N=NN(CCF)CCF)cc1
inactive: dose: 6.25 mg/kg/injection, schedule: Q01DX Z (ip), vehicle: saline 93 % of control | dose: 10.0 mg/kg/injection, schedule: Q01DX Z (ip), vehicle: saline 97 % of control | dose: 30.0 mg/kg/injection, schedule: Q01DX Z (ip), vehicle: saline 108 % of control

NNC(=O)CO
inactive: [12] 108 % of control | [8] 101 % of control | [13] 106 % of control | [9] 97 % of control | [14] 114 % of control | [10] 98 % of control
